According to patent US20240101521A1, “DIAMINOTRIAZINE COMPOUNDS” (BASF SE, priority 2021, published 2024):

What was measured:
Assay in all cases: greenhouse pre-emergence herbicidal test
Assay type in all cases: in vivo
Details in all cases: scale 0 to 100
Amaranthus retroflexus = system: Amaranthus retroflexus
Text: (§1) The culture containers used were plastic flowerpots containing loamy sand with approximately 3.0% of humus as the substrate. The seeds of the test plants were sown separately for each species.
(§2) For the pre-emergence treatment, the active ingredients, which had been suspended or emulsified in water, were applied directly after sowing by means of finely distributing nozzles. The containers were irrigated gently to promote germination and growth and subsequently covered with transparent plastic hoods until the plants had rooted. This cover caused uniform germination of the test plants, unless this had been impaired by the active ingredients. For the post-emergence treatment, the test plants were first grown to a height of 3 to 15 cm, depending on the plant habit, and only then treated with the active ingredients which had been suspended or emulsified in water. For this purpose, the test plants were either sown directly and grown in the same containers, or they were first grown separately as seedlings and transplanted into the test containers a few days prior to treatment.
(§3) Depending on the species, the plants were kept at 10-25° C. or 20-35° C., respectively.
(§4) The test period extended over 2 to 4 weeks. During this time, the plants were tended, and their response to the individual treatments was evaluated.
(§5) Evaluation was carried out using a scale from 0 to 100. 100 means no emergence of the plants, or complete destruction of at least the aerial moieties, and 0 means no damage, or normal course of growth. A moderate herbicidal activity is given at values of at least 60, a good herbicidal activity is given at values of at least 70, and a very good herbicidal activity is given at values of at least 85.
(§6) The plants used in the greenhouse experiments were of the following species: […]

Echinochloa crus-galli = system: Echinochloa crus-galli
Text: as §1, §2, §3, §4, §5, §6

Setaria faberi = system: Setaria faberi
Text: as §1, §2, §3, §4, §5, §6

Row | Compound | herbicidal activity (Amaranthus retroflexus; pre-emergence, 62,5 g/ha) [%] | herbicidal activity (Echinochloa crus-galli; pre-emergence, 62,5 g/ha) [%] | herbicidal activity (Setaria faberi; pre-emergence, 62,5 g/ha) [%] | herbicidal activity (Amaranthus retroflexus; pre-emergence, 62 g/ha) [%] | herbicidal activity (Echinochloa crus-galli; pre-emergence, 62 g/ha) [%] | herbicidal activity (Setaria faberi; pre-emergence, 62 g/ha) [%] | also measured
1 | COCOc1c(Br)ccc(F)c1Nc1nc(N)nc(C(C)(C)F)n1 [Example 26] |  |  |  |  |  |  | herbicidal activity (Amaranthus retroflexus; pre-emergence, 250 g/ha): 100%; herbicidal activity (Echinochloa crus-galli; pre-emergence, 250 g/ha): 100%; herbicidal activity (Setaria faberi; pre-emergence, 250 g/ha): 100%
2 | COc1c(Cl)ccc(F)c1Nc1nc(N)nc(C(C)F)n1 (stereo not shown) [Example 43] | 100 | 100 | 100 |  |  |  | 
3 | CCOc1c(Cl)cc(F)c(F)c1Nc1nc(N)nc(C(C)(C)F)n1 [Example 23] | 100 | 100 | 100 |  |  |  | 
4 | CC#CCOc1c(Cl)cc(F)c(F)c1Nc1nc(N)nc(C(F)C2CC2)n1 (stereo not shown) [Example 94] |  |  |  | 100 | 100 | 100 | 
5 | COc1c(Br)ccc(F)c1Nc1nc(N)nc(C2(F)CCCC2)n1 [Example 25] |  |  |  |  |  |  | herbicidal activity (Amaranthus retroflexus; pre-emergence, 250 g/ha): 100%; herbicidal activity (Echinochloa crus-galli; pre-emergence, 250 g/ha): 100%; herbicidal activity (Setaria faberi; pre-emergence, 250 g/ha): 100%
6 | COc1c(Br)cc(C)c(F)c1Nc1nc(N)nc(C(C)(C)F)n1 [Example 73] |  |  |  | 100 | 100 | 100 | 
7 | CC(C)(F)c1nc(N)nc(Nc2c(F)c(F)cc(Cl)c2OC(F)F)n1 [Example 80] |  |  |  | 100 | 100 | 100 | 
8 | CC#CCOc1c(Br)cc(C)c(F)c1Nc1nc(N)nc(C(C)(C)F)n1 [Example 75] |  |  |  | 100 | 100 | 100 | 
9 | CCOc1c(Cl)cc(Cl)c(F)c1Nc1nc(N)nc(C(C)(C)F)n1 [Example 83] |  |  |  | 100 | 100 | 100 | 
10 | CC#CCOc1c(Br)ccc(F)c1Nc1nc(N)nc(C(C)(C)F)n1 [Example 46] | 100 | 100 | 100 |  |  |  | 
11 | C#CCOc1c(Br)cc(C)c(F)c1Nc1nc(N)nc(C(C)(C)F)n1 [Example 74] |  |  |  | 100 | 100 | 100 | 
12 | COc1c(Br)ccc(F)c1Nc1nc(N)nc(C(C)F)n1 (stereo not shown) [Example 44] | 100 | 100 | 100 |  |  |  | 
13 | CC#CCOc1c(Br)cc(F)c(F)c1Nc1nc(N)nc(C(C)F)n1 (stereo not shown) [Example 90] |  |  |  | 100 | 100 | 100 | 
14 | CCOc1c(Cl)cc(F)c(F)c1Nc1nc(N)nc(C2(F)CCCCC2)n1 [Example 110] | 95 | 100 | 85 |  |  |  | 
15 | C#CCOc1c(Br)cc(F)c(F)c1Nc1nc(N)nc(C2(F)CCCC2)n1 [Example 27] |  |  |  |  |  |  | herbicidal activity (Amaranthus retroflexus; pre-emergence, 31 g/ha): 100%; herbicidal activity (Setaria faberi; pre-emergence, 31 g/ha): 100%
16 | CCC#CCOc1c(Cl)cc(F)c(F)c1Nc1nc(N)nc(C(C)(C)F)n1 [Example 24] | 100 | 100 | 100 |  |  |  | 
17 | C#CCOc1c(C)cc(Br)c(F)c1Nc1nc(N)nc(C(C)(C)F)n1 [Example 67] |  |  |  | 100 | 100 | 100 | 
18 | CC#CCOc1c(Br)cc(F)c(F)c1Nc1nc(N)nc(C(C)(F)F)n1 [Example 47] | 100 | 100 | 100 |  |  |  | 
19 | CC#CCOc1c(Cl)cc(F)c(F)c1Nc1nc(N)nc(C(C)(C)OC)n1 [Example 82] |  |  |  | 100 | 100 | 100 | 
20 | COc1c(Cl)cc(F)c(F)c1Nc1nc(N)nc(C(C)F)n1 (stereo not shown) [Example 39] | 100 | 100 | 100 |  |  |  | 
21 | COc1c(Br)cc(Cl)c(F)c1Nc1nc(N)nc(C(C)(C)F)n1 [Example 76] |  |  |  | 100 | 100 | 100 | 
22 | CCC#CCOc1c(Br)cc(F)c(F)c1Nc1nc(N)nc(C2(F)CCCC2)n1 [Example 22] | 85 | 85 | 100 |  |  |  | 
23 | CC#CC(C)Oc1c(Br)cc(F)c(F)c1Nc1nc(N)nc(C2(F)CCCC2)n1 (stereo not shown) [Example 96] |  |  |  |  | 70 | 75 | 
24 | C#CCOc1c(Cl)cc(F)c(F)c1Nc1nc(N)nc(C(C)(F)CCl)n1 (stereo not shown) [Example 86] |  |  |  | 100 | 100 | 100 | 
